The values below come from US8487103B2 (Roche Palo Alto LLC, priority 2009, dated 2013).

Usually melting point stands for the temperature, or range, at which the solid turns liquid. By pIC50 is commonly meant the negative decadic logarithm of the IC50, by convention in mol/L. A low value points to a high IC50.

The structures appear in SMILES notation. pIC50: −log10 of the molar value. Where a name gives a salt, the structure may show the parent alone.

Test system in the first data set: not given
Assay: not given
In turn, `CC(C)(C)c1cc(-c2ccc[nH]c2=O)c2ncc(N3CCC(NS(C)(=O)=O)CC3)nc2c1` gave a melting point of 275 to 280 °C. The same measure, in the same setting: as for `CC(C)(C)c1cc(-c2cc(F)c[nH]c2=O)c2ncc(-c3ccc(NS(C)(=O)=O)cc3)cc2c1` [Compound I-12], the figure is 208 to 210 °C.

A further data set addresses T1, HCV polymerase (NS5B570n-Con1) (Hepatitis C virus genotype 1b, UniProt Q9WMX2).
T1 construct: contains a 21 amino acid deletion at the C-terminus relative to the full-length HCV polymerase; 6-histidine (N); made in house; host or cells: E. coli BL21(DE) pLysS, plasmid pET 17b
Briefly: HCV NS5B RNA Polymerase Activity. The class given is biochemical, HCV Con1 strain. The method, then:
The enzymatic activity of HCV polymerase (NS5B570n-Con1) was measured as the incorporation of radiolabeled nucleotide monophosphates into acid insoluble RNA products. Unincorporated radiolabeled substrate was removed by filtration and scintillant was added to the washed and dried filter plate containing radiolabeled RNA product. The amount of RNA product generated by NS5B570-Con1 at the end of the reaction was directly proportional to the amount of light emitted by the scintillant.
The N-terminal 6-histidine tagged HCV polymerase, derived from HCV Con1 strain, genotype 1b (NS5B570n-Con1) contains a 21 amino acid deletion at the C-terminus relative to the full-length HCV polymerase and was purified from E. coli strain BL21(DE) pLysS. The construct, containing the coding sequence of HCV NS5B Con1 (GenBank accession number AJ242654) was inserted into the plasmid construct pET 17b, downstream of a T7 promoter expression cassette and transformed into E. coli. A single colony was grown overnight as a starter culture and later used inoculate 10 L of LB media supplemented with 100 μg/mL ampicillin at 37° C. Protein expression was induced by the addition of 0.25 mM isopropyl-β-D-thiogalactopyranoside (IPTG) when optical density at […] of the culture was between 0.6 and 0.8 and cells were harvested after 16 to 18 h at 30° C. NS5B570n-Con1 was purified to homogeneity using a three-step protocol including subsequent column chromatography on Ni-NTA, SP-Sepharose HP and Superdex 75 resins.
Each 50 μL enzymatic reaction contained 20 nM RNA template derived from the complementary sequence of the Internal Ribosome Entry Site (cIRES), 20 nM NS5B570n-Con1 enzyme, 0.5 μCi of tritiated UTP (Perkin Elmer catalog no. TRK-412; specific activity: 30 to 60 Ci/mmol; stock solution concentration from 7.5×10^−5 M to 20.6×10^−6 M), 1 μM each ATP, CTP, and GTP, 40 mM Tris-HCl pH 8.0, 40 mM NaCl, 4 mM DTT (dithiothreitol), 4 mM MgCl2, and 5 μl of compound serial diluted in DMSO. Reaction mixtures were assembled in 96-well filter plates (cat #MADVN0B, Millipore Co.) and incubated for 2 h at 30° C. Reactions were stopped by addition of 10% final (v/v) trichloroacetic acid and incubated for 40 min at 4° C. Reactions were filtered, washed with 8 reaction volumes of 10% (v/v) trichloroacetic acetic acid, 4 reaction volumes of 70% (v/v) ethanol, air dried, and 25 μl of scintillant (Microscint 20, Perkin-Elmer) was added to each reaction well.
The amount of light emitted from the scintillant was converted to counts per minute (CPM) on a Topcount® plate reader (Perkin-Elmer, Energy Range: Low, Efficiency Mode Normal, Count Time: 1 min, Background Subtract: none, Cross talk reduction: Off).
Data was analyzed in Excel® (Microsoft) and ActivityBase® (Idbs®). The reaction in the absence of enzyme was used to determine the background signal, which was subtracted from the enzymatic reactions. Positive control reactions were performed in the absence of compound, from which the background corrected activity was set as 100% polymerase activity. All data was expressed as a percentage of the positive control. The compound concentration at which the enzyme-catalyzed rate of RNA synthesis was reduced by 50% (IC50) was calculated by fitting equation (i) to the data where“Y”
[formula] corresponds to the relative enzyme activity (in %), “% Min” is the residual relative activity at saturating compound concentration, “% Max” is the relative maximum enzymatic activity, “X” corresponds to the compound concentration, and “S” is the Hill coefficient (or slope).
`COc1c(CC(F)(F)F)cc(N2CCC(=O)NC2=O)c2ncc(-c3ccc(NS(C)(=O)=O)cc3)cc12` [Compound I-30, N-{4-[8-(Dioxo-tetrahydro-pyrimidin-1-yl)-5-methoxy-6-(2,2,2-trifluoro-ethyl)-quinolin-3-yl]-phenyl}-methanesulfonamide] showed a negative-log IC50 (pIC50) of 7.77. The same measure, in the same setting: as for `COc1c(C(C)(C)C)cc(N2CCC(=O)NC2=O)c2ncc(N3CC[C@H](CNS(C)(=O)=O)C3)cc12` [Compound I-31], the figure is 8.74. Same read-out and setting: next, `Br.[2H]C([2H])([2H])C(c1cc(-c2ccc(OC)[nH]c2=O)c2ncc(-c3ccc(NS(C)(=O)=O)cc3)cc2c1OC)(C([2H])([2H])[2H])C([2H])([2H])[2H]` [Compound I-32, N-{4-[6-[1,1-di(methyl-d3)ethyl-2,2,2-d3]-5-methoxy-8-(6-methoxy-2-oxo-1,2-dihydro-pyridin-3-yl)-quinolin-3-yl]-phenyl}-methanesulfonamide]: 9.10; `COc1ccc(-c2cc(C3(C#N)CC3)c(OC)c3cc(-c4ccc(NS(C)(=O)=O)cc4)cnc23)c(=O)[nH]1` [Compound I-33]: 8.42. `COc1ccc(-c2cc(C(C)(C)C)c(OC)c3cc(-c4ccc(NS(C)(=O)=O)cc4)cnc23)c(=O)[nH]1` [Compound I-34, N-{4-[6-tert-Butyl-5-methoxy-8-(6-methoxy-2-oxo-1,2-dihydro-pyridin-3-yl)-quinolin-3-yl]-phenyl}-methanesulfonamide] showed a negative-log IC50 (pIC50) of 8.00. For the molecule `COc1ccc(-c2cc(C(C)(C)C)c(OC)c3cc(N4CC[C@H](CNS(C)(=O)=O)C4)ccc23)c(=O)[nH]1` [Compound I-36, N-{(S)-1-[7-tert-Butyl-8-methoxy-5-(6-methoxy-2-oxo-1,2-dihydro-pyridin-3-yl)-naphthalen-2-yl]-pyrrolidin-3-ylmethyl}-methanesulfonamide], the negative-log IC50 (pIC50) is 8.08. Still for that read-out and setting: as for `COc1c(C2(C(F)F)CC2)cc(-c2ccc(C)[nH]c2=O)c2ncc(-c3ccc(NS(C)(=O)=O)cc3)cc12` [Compound I-37, N-{4-[6-(1-Difluoromethyl-cyclopropyl)-5-methoxy-8-(6-methyl-2-oxo-1,2-dihydro-pyridin-3-yl)-quinolin-3-yl]-phenyl}-methanesulfonamide], the figure is 8.00. Still for that read-out and setting: as for `COc1ccc(-c2cc(C3(C(F)F)CC3)c(OC)c3cc(-c4ccc(NS(C)(=O)=O)cc4)cnc23)c(=O)[nH]1` [Compound I-38], the figure is 9.22. Same read-out and setting: next, `COc1c(C2(C(F)F)CC2)cc(-n2ccc(=O)[nH]c2=O)c2ncc(-c3ccc(NS(C)(=O)=O)cc3)cc12` [Compound I-39, N-{4-[6-(1-Difluoromethyl-cyclopropyl)-8-(2,4-dioxo-3,4-dihydro-2H-pyrimidin-1-yl)-5-methoxy-quinolin-3-yl]-phenyl}-methanesulfonamide]: 8.47.

`COc1c(C(C)(C)C)cc(-c2cc(Cl)c(C)[nH]c2=O)c2ncc(-c3ccc(NS(C)(=O)=O)cc3)cc12` [Compound I-42, N-{4-[6-tert-Butyl-8-(5-chloro-6-methyl-2-oxo-1,2-dihydro-pyridin-3-yl)-5-methoxy-quinolin-3-yl]-phenyl}-methanesulfonamide] showed a pIC50 of 9.22. `COc1c(C(C)(C)C)cc(-c2ccc[nH]c2=O)c2ncc(-c3ccc(N)nc3)cc12` [Compound I-43, 3-[3-(6-Amino-pyridin-3-yl)-6-tert-butyl-5-methoxy-quinolin-8-yl]-1H-pyridin-2-one] showed a pIC50 of 8.59. As to `COc1c(C(C)(C)C)cc(-c2ccc(C)[nH]c2=O)c2ncc(CCCCNS(C)(=O)=O)cc12` [Compound I-44, N-{4-[6-tert-Butyl-5-methoxy-8-(6-methyl-2-oxo-1,2-dihydro-pyridin-3-yl)-quinolin-3-yl]-butyl}-methanesulfonamide], the negative-log IC50 (pIC50) was 7.91. In turn, `COc1c(C(C)(C)C)cc(-c2ccc(C)[nH]c2=O)c2ncc(OCCCNS(C)(=O)=O)cc12` [Compound I-45, N-{3-[6-tert-Butyl-5-methoxy-8-(6-methyl-2-oxo-1,2-dihydro-pyridin-3-yl)-quinolin-3-yloxy]-propyl}-methanesulfonamide] gave a pIC50 of 7.93.

With `COc1c(C(C)(C)C)cc(-c2ccc(C)[nH]c2=O)c2ncc(N3CC[C@H](CNS(C)(=O)=O)C3)cc12` [Compound I-46], the pIC50 was 9.05. Compared with the last molecule, the pIC50 is 1.12 log units higher. The same measure, in the same setting: as for `COc1[nH]c(=O)c(-c2cc(C(C)(C)C)c(OC)c3cc(-c4ccc(NS(C)(=O)=O)cc4)cnc23)cc1F` [Compound I-47, N-{4-[6-tert-Butyl-8-(5-fluoro-6-methoxy-2-oxo-1,2-dihydro-pyridin-3-yl)-5-methoxy-quinolin-3-yl]-phenyl}-methanesulfonamide], the figure is 7.89; as for `COc1c(C(F)(F)F)cc(-c2ccc(C)[nH]c2=O)c2ncc(-c3ccc(NS(C)(=O)=O)cc3)cc12` [Compound I-49, N-{4-[5-Methoxy-8-(6-methyl-2-oxo-1,2-dihydro-pyridin-3-yl)-6-trifluoromethyl-quinolin-3-yl]-phenyl}-methanesulfonamidehydrobromide], 9.15; as for `COc1ccc(-c2cc(C(F)(F)F)c(OC)c3cc(-c4ccc(NS(C)(=O)=O)cc4)cnc23)c(=O)[nH]1` [Compound I-50], 9.22. Still for that read-out and setting: next, `COc1c(C(F)(F)F)cc(-n2ccc(=O)[nH]c2=O)c2ncc(-c3ccc(NS(C)(=O)=O)cc3)cc12` [Compound I-51, N-{4-[8-(2,4-Dioxo-3,4-dihydro-2H-pyrimidin-1-yl)-5-methoxy-6-trifluoromethyl-quinolin-3-yl]-phenyl}-methanesulfonamide]: 8.42; `COc1c(C(C)(C)C)cc(-n2ccc(=O)[nH]c2=O)c2ncc(N3CC[C@H](CNS(C)(=O)=O)C3)cc12` [Compound I-52, N-{(S)-1-[6-tert-Butyl-8-(2,4-dioxo-3,4-dihydro-2H-pyrimidin-1-yl)-5-methoxy-quinolin-3-yl]-pyrrolidin-3-ylmethyl}-methanesulfonamide]: 8.46. In the case of `COc1c(CC(F)(F)F)cc(-c2ccc(C)[nH]c2=O)c2ncc(-c3ccc(NS(C)(=O)=O)cc3)cc12` [Compound I-53, N-{4-[5-Methoxy-8-(6-methyl-2-oxo-1,2-dihydro-pyridin-3-yl)-6-(2,2,2-trifluoro-ethyl)-quinolin-3-yl]-phenyl}-methanesulfonamide hydrobomide salt], the pIC50 is 8.02. On the same count and under the same terms, next, `COc1ccc(-c2cc(CC(F)(F)F)c(OC)c3cc(-c4ccc(NS(C)(=O)=O)cc4)cnc23)c(=O)[nH]1` [Compound I-54, N-{4-[5-Methoxy-8-(6-methoxy-2-oxo-1,2-dihydro-pyridin-3-yl)-6-(2,2,2-trifluoro-ethyl)-quinolin-3-yl]-phenyl}-methanesulfonamide]: 8.66. The same measure, in the same setting: as for `COc1c(CC(F)(F)F)cc(-n2ccc(=O)[nH]c2=O)c2ncc(-c3ccc(NS(C)(=O)=O)cc3)cc12` [Compound I-56, N-{4-[8-(2,4-Dioxo-3,4-dihydro-2H-pyrimidin-1-yl)-5-methoxy-6-(2,2,2-trifluoro-ethyl)-quinolin-3-yl]-phenyl}-methanesulfonamide], the figure is 7.41; as for `COc1ccc(-c2cc(C(C)(C)C)cc3cc(-c4ccc(NS(C)(=O)=O)cc4)cnc23)c(=O)[nH]1` [Compound I-58], 8.22.
